Results taken from ChEMBL document CHEMBL1201862, “PubChem BioAssay data set” (2004).
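Five compound concentrations were applied to cells in 96-well plates for 48 hours; endpoints were derived by simple linear interpolation of the resulting dose-response curve. GI50 = concentration required for 50% inhibition of growth.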 Activity calls are given as the source filed them. No stated cut-off is given here; in the data, active = GI50 up to about 1.1 µM and inactive = higher. Where a SMILES comes first, the peptide text is derived from it. [ ]: non-standard residue; d: D form. Phe(4-Cl) = N[CH](Cc1ccc(Cl)cc1)C(=O)O

What was measured:
Assay in all cases: growth of human tumour cells (NCI), 48 h
DLD-1 = tested on: DLD-1
DMS-273 = tested on: DMS-273
HOP-18 = tested on: HOP-18
KM-20L2 = tested on: KM-20L2
M19-MEL = tested on: M19-MEL
SNB-78 = tested on: SNB-78
XF498 = tested on: XF498
LXFL 529 = tested on: LXFL 529
RXF 631 = tested on: RXF 631

## CC(=O)OCC(=O)[C@@]1(O)CC[C@H]2[C@@H]3CCC4=CC(=O)[C@H](C)C[C@]4(C)[C@H]3[C@@H](O)C[C@@]21C
DLD-1
  GI50: > 100 µM (inactive)
DMS-273
  GI50: > 100 µM (inactive)
HOP-18
  GI50: > 100 µM (inactive)
KM-20L2
  GI50: > 100 µM (inactive)
M19-MEL
  GI50: > 100 µM (inactive)
SNB-78
  GI50: 9.77 µM (inactive)
XF498
  GI50: > 100 µM (inactive)

## CN(C)CC1CCC(=C2CCCC2)C1=O (stereo not drawn)
DLD-1
  GI50: 2.82 µM (inactive)
DMS-273
  GI50: 18.3 µM (inactive)
HOP-18
  GI50: 16.7 µM (inactive)
KM-20L2
  GI50: 18.7 µM (inactive)
LXFL 529
  GI50: 3.24 µM (inactive)
M19-MEL
  GI50: 16.8 µM (inactive)
SNB-78
  GI50: 12.6 µM (inactive)
XF498
  GI50: 6.84 µM (inactive)

## O=C[C@@H](CO)O[C@H](C=O)c1c[nH]c(=O)[nH]c1=O
DLD-1
  GI50: 75 µM (inactive)
DMS-273
  GI50: > 81.5 µM (inactive)
HOP-18
  GI50: 95.1 µM (inactive)
KM-20L2
  GI50: 84.3 µM (inactive)
M19-MEL
  GI50: 104 µM (inactive)
SNB-78
  GI50: 133 µM (inactive)
XF498
  GI50: 24.7 µM (inactive)

## Cc1ccc2ccc3ccc(C)nc3c2n1 [NEOCUPROINE]
DLD-1
  GI50: 0.656 µM (active)
DMS-273
  GI50: 2.36 µM (inactive)
HOP-18
  GI50: 63.4 µM (inactive)
KM-20L2
  GI50: 6.24 µM (inactive)
LXFL 529
  GI50: 0.679 µM (active)
M19-MEL
  GI50: 3.44 µM (inactive)
SNB-78
  GI50: > 100 µM (inactive)

## CCOC(=O)c1c(-c2ccccc2)oc(-c2ccccc2)c1C(=O)OCC
DLD-1
  GI50: > 100 µM (inactive)
DMS-273
  GI50: > 100 µM (inactive)
HOP-18
  GI50: > 100 µM (inactive)
KM-20L2
  GI50: 38.9 µM (inactive)
LXFL 529
  GI50: 34.6 µM (inactive)
M19-MEL
  GI50: 56.4 µM (inactive)
SNB-78
  GI50: > 100 µM (inactive)
XF498
  GI50: 29.2 µM (inactive)

## CC12CCc3ccccc3C1=NNC(=O)C2 (stereo not drawn)
DLD-1
  GI50: > 100 µM (inactive)
DMS-273
  GI50: > 100 µM (inactive)
HOP-18
  GI50: > 100 µM (inactive)
KM-20L2
  GI50: > 100 µM (inactive)
LXFL 529
  GI50: > 100 µM (inactive)
M19-MEL
  GI50: > 100 µM (inactive)
SNB-78
  GI50: > 100 µM (inactive)
XF498
  GI50: > 100 µM (inactive)

## COC(=O)C1(F)C(=O)NC(=O)NC1OC (stereo not drawn)
DLD-1
  GI50: 5.92 µM (inactive)
DMS-273
  GI50: 21.2 µM (inactive)
HOP-18
  GI50: 88.7 µM (inactive)
KM-20L2
  GI50: 50.9 µM (inactive)
M19-MEL
  GI50: 18.7 µM (inactive)
SNB-78
  GI50: > 100 µM (inactive)
XF498
  GI50: 67.1 µM (inactive)

## CCCCCCCC1(c2ccc(N)cc2)CCC(=O)NC1=O (stereo not drawn)
DLD-1
  GI50: 33.7 µM (inactive)
DMS-273
  GI50: 26.9 µM (inactive)
KM-20L2
  GI50: 33 µM (inactive)
LXFL 529
  GI50: 29.3 µM (inactive)
M19-MEL
  GI50: 37.8 µM (inactive)
RXF 631
  GI50: 41 µM (inactive)
SNB-78
  GI50: 31.6 µM (inactive)
XF498
  GI50: 27.2 µM (inactive)

## CC1=C(c2cc(C(=O)Nc3cccc(C(F)(F)F)c3)nc(NC#N)n2)Sc2ccccc2N1
DLD-1
  GI50: > 100 µM (inactive)
DMS-273
  GI50: > 100 µM (inactive)
HOP-18
  GI50: > 100 µM (inactive)
KM-20L2
  GI50: > 100 µM (inactive)
LXFL 529
  GI50: > 100 µM (inactive)
M19-MEL
  GI50: > 100 µM (inactive)
RXF 631
  GI50: > 100 µM (inactive)
SNB-78
  GI50: > 100 µM (inactive)

## COc1ccc2c(c1)NC1(O)c3ccccc3C(=O)C21O (stereo not drawn)
DLD-1
  GI50: > 100 µM (inactive)
DMS-273
  GI50: > 100 µM (inactive)
HOP-18
  GI50: > 100 µM (inactive)
KM-20L2
  GI50: > 100 µM (inactive)
LXFL 529
  GI50: > 100 µM (inactive)
M19-MEL
  GI50: > 100 µM (inactive)
RXF 631
  GI50: > 100 µM (inactive)
SNB-78
  GI50: > 100 µM (inactive)
XF498
  GI50: 25 µM (inactive)

## COC(=O)C1=C(c2ccc(Cl)cc2)C(O)NC(NN)=N1 (stereo not drawn)
DLD-1
  GI50: > 100 µM (inactive)
HOP-18
  GI50: > 100 µM (inactive)
LXFL 529
  GI50: > 100 µM (inactive)
M19-MEL
  GI50: > 100 µM (inactive)
RXF 631
  GI50: > 100 µM (inactive)
SNB-78
  GI50: > 100 µM (inactive)
XF498
  GI50: > 100 µM (inactive)

## O=C1c2ccccc2C(Br)(Br)c2ccccc21
DLD-1
  GI50: > 31.6 µM (inactive)
DMS-273
  GI50: > 31.6 µM (inactive)
HOP-18
  GI50: > 31.6 µM (inactive)
KM-20L2
  GI50: > 100 µM (inactive)
LXFL 529
  GI50: > 31.6 µM (inactive)
M19-MEL
  GI50: > 31.6 µM (inactive)
SNB-78
  GI50: > 100 µM (inactive)
XF498
  GI50: 29.3 µM (inactive)

## CCN(CC)CCCC(C)Nc1c2ccc(Cl)cc2nc2ccc(OC)cc12 (stereo not drawn)
DLD-1
  GI50: 1.64 µM (inactive)
DMS-273
  GI50: 0.548 µM (active)
KM-20L2
  GI50: 1.33 µM (inactive)
LXFL 529
  GI50: 1.53 µM (inactive)
M19-MEL
  GI50: 1.76 µM (inactive)
RXF 631
  GI50: 1.77 µM (inactive)
SNB-78
  GI50: 3.23 µM (inactive)
XF498
  GI50: 1.73 µM (inactive)

## Cc1cc(C)nc(NS(=O)(=O)c2ccc(NC(=O)c3cccc4c(Nc5ccc(S(N)(=O)=O)cc5)c5ccccc5nc34)cc2)n1
DLD-1
  GI50: > 93.3 µM (inactive)
DMS-273
  GI50: 34.8 µM (inactive)
HOP-18
  GI50: > 56 µM (inactive)
KM-20L2
  GI50: > 75.5 µM (inactive)
LXFL 529
  GI50: 3.92 µM (inactive)
M19-MEL
  GI50: 13.5 µM (inactive)
RXF 631
  GI50: > 100 µM (inactive)
SNB-78
  GI50: 9.79 µM (inactive)
XF498
  GI50: 39.2 µM (inactive)

## CCCC(O)[C@@]1(CC)CC(C)C(O)(C2(C)C[C@H](C)[C@@H](C(CC)C(=O)C(C)[C@@H](O)[C@H](C)C3OC(O)(C(CC)C(=O)O)[C@@H](C)C(O)C3CC)O2)O1 (stereo partly drawn)
DLD-1
  GI50: 0.841 µM (active)
DMS-273
  GI50: 0.29 µM (active)
HOP-18
  GI50: 8.59 µM (inactive)
KM-20L2
  GI50: 0.276 µM (active)
LXFL 529
  GI50: 0.594 µM (active)
M19-MEL
  GI50: 0.643 µM (active)
RXF 631
  GI50: < 0.0333 µM (active)
SNB-78
  GI50: 2.76 µM (inactive)
XF498
  GI50: 1.19 µM (inactive)

## Cc1ccc2c(c1)C(c1cccc3ccccc13)OC2=O (stereo not drawn)
DLD-1
  GI50: 75 µM (inactive)
DMS-273
  GI50: > 100 µM (inactive)
HOP-18
  GI50: 71.6 µM (inactive)
KM-20L2
  GI50: > 100 µM (inactive)
LXFL 529
  GI50: > 100 µM (inactive)
M19-MEL
  GI50: > 100 µM (inactive)
RXF 631
  GI50: 27.7 µM (inactive)

## COc1ccc2c(c1)[n+]([O-])c(C(=O)CC(=O)C(=O)Nc1cccc(Cl)c1C)c(C)[n+]2[O-]
DMS-273
  GI50: > 100 µM (inactive)
HOP-18
  GI50: > 100 µM (inactive)
KM-20L2
  GI50: > 100 µM (inactive)
LXFL 529
  GI50: > 100 µM (inactive)
M19-MEL
  GI50: 42.9 µM (inactive)
SNB-78
  GI50: > 100 µM (inactive)

## CC(O)C(NC(=O)C(Cc1ccccc1)NC(=O)C(NC(=O)C(CCCCN)NC(=O)C(Cc1c[nH]c2ccccc12)NC(=O)C(Cc1ccc(O)cc1)NC(=O)C(Cc1ccc(Cl)cc1)NC(=O)C(N)Cc1ccccc1)C(C)O)C(N)=O (stereo not drawn) (H-F[Phe(4-Cl)]YWKTFT-NH2; configuration not given here)
DLD-1
  GI50: 20.3 µM (inactive)
DMS-273
  GI50: 33 µM (inactive)
KM-20L2
  GI50: 21.2 µM (inactive)
LXFL 529
  GI50: 18.4 µM (inactive)
M19-MEL
  GI50: 21.5 µM (inactive)
RXF 631
  GI50: 19.4 µM (inactive)
SNB-78
  GI50: 25.4 µM (inactive)
XF498
  GI50: 14.2 µM (inactive)

## O=c1c2ccc(Br)cc2nc(-c2ccccc2)n1NC1OC(CO)C(O)C(O)C1O (stereo not drawn)
DMS-273
  GI50: > 100 µM (inactive)
HOP-18
  GI50: > 100 µM (inactive)
KM-20L2
  GI50: > 100 µM (inactive)
LXFL 529
  GI50: > 100 µM (inactive)
M19-MEL
  GI50: > 100 µM (inactive)
SNB-78
  GI50: > 100 µM (inactive)
XF498
  GI50: > 100 µM (inactive)

## CCCCCC1C2C(=O)NC(=O)C1C(=O)NC2=O (stereo not drawn)
DLD-1
  GI50: > 100 µM (inactive)
DMS-273
  GI50: > 100 µM (inactive)
KM-20L2
  GI50: > 100 µM (inactive)
LXFL 529
  GI50: > 100 µM (inactive)
M19-MEL
  GI50: > 100 µM (inactive)
XF498
  GI50: > 100 µM (inactive)

## COC1=CC2(C=CC1=O)c1cc(OC)c(OC)cc1CCN2C(=O)c1ccccc1 (stereo not drawn)
DLD-1
  GI50: > 100 µM (inactive)
DMS-273
  GI50: > 100 µM (inactive)
HOP-18
  GI50: 98.2 µM (inactive)
LXFL 529
  GI50: > 100 µM (inactive)
SNB-78
  GI50: > 100 µM (inactive)

## CCCCC#COP(=O)(OCC)OCC
DLD-1
  GI50: > 100 µM (inactive)
KM-20L2
  GI50: > 100 µM (inactive)
LXFL 529
  GI50: > 100 µM (inactive)
M19-MEL
  GI50: > 100 µM (inactive)
RXF 631
  GI50: > 100 µM (inactive)
SNB-78
  GI50: > 100 µM (inactive)

## Cc1ccccc1/N=C/c1ccc(N(CCC#N)S(=O)(=O)c2ccccc2)cc1
DLD-1
  GI50: > 100 µM (inactive)
DMS-273
  GI50: > 100 µM (inactive)
HOP-18
  GI50: > 100 µM (inactive)
KM-20L2
  GI50: > 100 µM (inactive)
LXFL 529
  GI50: > 100 µM (inactive)
M19-MEL
  GI50: > 100 µM (inactive)
RXF 631
  GI50: > 100 µM (inactive)
SNB-78
  GI50: > 100 µM (inactive)
XF498
  GI50: > 100 µM (inactive)

## NC(=S)/N=C(/c1nc2ccc(Cl)cc2nc1O)C(O)c1ccccc1Cl (stereo not drawn)
DLD-1
  GI50: > 100 µM (inactive)
DMS-273
  GI50: > 100 µM (inactive)
HOP-18
  GI50: 33.8 µM (inactive)
KM-20L2
  GI50: > 100 µM (inactive)
LXFL 529
  GI50: > 100 µM (inactive)
XF498
  GI50: > 100 µM (inactive)
